# Measurements: publication PMC8150020, “Studying the suitability of hybrid micelle liquid chromatography for estimating the lipophilicity of some partial dopamine agonists used to attain the reward circuit” (Royal Society Open Science, 2021)
# Counter-ions that a name gives are not always drawn. Like-named read-outs stand apart in the source and are kept apart here.
# Columns and labels:
# [1] = experimental determination of log Pm/w using MLC; format: physicochemical; settings: 0.18 M SDS, 0.3% TEA, pH 6, column 40°C
# Protocol: (§1) Three micelle-based mobile phases were developed for the separation of this mixture. In all three cases, the separation was carried out on a Prontosil Kromaplus C18 column (250 × 4.6 mm) of particle size 5 µm, Leonberg, Germany, which was kept at 40°C. […] Separation of the three drugs was accomplished using 254 nm as a detection wavelength, adopting a flow rate of 1.5 ml min^−1.
# (§2) Different actual SDS concentrations for each mobile phase (after subtracting the CMC of SDS at 40°C) were plotted versus the inverse of the capacity factor for each drug, using the optimized chromatographic conditions for MLC, HMLC and MELC, where pH was adjusted to 6, and the column temperature was kept at 40°C for the three separation methods.
# [2] = experimental determination of log Pm/w using HMLC; format: physicochemical; settings: for experimental log Pm/w, column temperature 25°C: pH 6, 25°C; for experimental log Pm/w, column temperature 30°C: pH 6, 30°C; for experimental log Pm/w, column temperature 35°C: pH 6, 35°C
# [3] = experimental determination of log Pm/w using MELC; format: physicochemical; settings: 0.18 M SDS, 10% acetonitrile, 1% octane, 0.3% TEA, pH 6, column 40°C
# Protocol: as §1, §2
# [4] = parameters: method as in earlier work; settings: cited from earlier work
# [5] = parameters: method as in earlier work; settings: cited from earlier work; remark: listed apart in the source
# [6] = HMLC, pH 3, 40°C, read-out: log P (experimental log Pm/w) pH 3
# [7] = HMLC, pH 4, 40°C, read-out: log P (experimental log Pm/w) pH 4
Compound,experimental log Pm/w MLC [1],"experimental log Pm/w, column temperature 25°C ([2]; HMLC)","experimental log Pm/w, column temperature 30°C ([2]; HMLC)","experimental log Pm/w, column temperature 35°C ([2]; HMLC)",experimental log Pm/w MELC [3],pka [4],reported log P [5],"chromatographic logP [2, 6]","chromatographic logP [2, 7]","experimental log Pm/w HMLC ([2]; 0.18 M SDS, 10% acetonitrile, 0.3% TEA, pH 6, column 40°C)","chromatographic logP ([2]; HMLC, pH 5, 40°C, read-out: log P (experimental log Pm/w) pH 5)","experimental log Pm/w, column temperature 40°C ([2]; HMLC, pH 6, 40°C)","chromatographic logP ([2]; HMLC, pH 6, 40°C, read-out: log P (experimental log Pm/w) pH 6)"
"CCCN[C@H]1CCc2nc(N)sc2C1 (racemic) [PRM, (RS)-4,5,6,7-tetrahydro-N-6-propyl-2,6-benzothiazolediamine dihydrochloride monohydrate]",0.9385,1.1714,2.197,2.228,1.316,10.5,2.34,,,,,,
"O=C1CCc2ccc(OCCCCN3CCN(c4cccc(Cl)c4Cl)CC3)cc2N1 [ARP, 7-[4-[4-(2,3-dichlorophenyl)piperazin-1-yl]butoxy]-3,4-dihydro-1H-quinolin-2-one]",2.182,3.12,3.66,,2.275,10,,4.23,4.52,,,,
"c1cnc(N2CCN(Cc3ccc4c(c3)OCO4)CC2)nc1 [PRB, 2-[4-(1,3-benzodioxol-5-ylmethyl)piperazin-1-yl] pyrimidine]",0.7334,0.976,,1.208,1.491,6.95,1.8,0.86,1.09,1.648,1.1,1.648,1.65
